Reference: publication PMC4965013, “Open Source Drug Discovery with the Malaria Box Compound Collection for Neglected Diseases and Beyond” (PLoS Pathogens, 2016)

What was measured:
P. falciparum = assay: EC50 listed in S2 Table Metabolomics (used to set the concentration tested); format: cell-based; conditions: Plasmodium falciparum; EC50 used for Factor_XEC50 in metabolomics; read-out: EC50_nM
[1] = system: P. falciparum 3D7 trophozoites; assay: Metabolomic fingerprint profiling LC-MS; format: cell-based, Plasmodium falciparum; design: UDP-D-glucose / ADP-D-glucose: unit not given here
[2] = metabolite level change after treatment

Compound `CCn1c(CN2CCN(Cc3ccccc3)CC2)nc2cc(NC(=O)c3cccs3)ccc21` [MMV020439] has an EC50 (P. falciparum) of 0.512 µM, an Acetyllysine ([1]; S2 Table Metabolomics, metabolite Acetyllysine) of 0.7202 and a N-acetyl-L-ornithine ([1]; S2 Table Metabolomics, metabolite N-acetyl-L-ornithine) of 1.173. It also gave a N-carbamoyl-L-aspartate ([1]; S2 Table Metabolomics, metabolite N-carbamoyl-L-aspartate) of 4.61, an NADPH ([1]; S2 Table Metabolomics, metabolite NADPH) of 0.6182 and a dAMP ([1]; S2 Table Metabolomics, metabolite dAMP) of -1.31. For the same compound, the dCMP ([1]; S2 Table Metabolomics, metabolite dCMP) was -0.04169, the dTDP ([1]; S2 Table Metabolomics, metabolite dTDP) was -1.17 and the dTMP ([1]; S2 Table Metabolomics, metabolite dTMP) was -0.7966. For the same compound, the dTTP ([1]; S2 Table Metabolomics, metabolite dTTP) was -1.312, the dihydroorotate ([1]; S2 Table Metabolomics, metabolite dihydroorotate) was 4.909 and the orotate ([1]; S2 Table Metabolomics, metabolite orotate) was 0.06984. The DLH ([1]; S2 Table Metabolomics, peptide DLH) was 0.527, the DLS/SDL/SID ([1]; S2 Table Metabolomics, peptide DLS/SDL/SID) was 0.4749 and the PD ([1]; S2 Table Metabolomics, peptide PD) was 0.8243. For the same compound, the PEE ([1]; S2 Table Metabolomics, peptide PEE) was 1.011, the PVNF ([1]; S2 Table Metabolomics, peptide PVNF) was 0.2931 and the 3-phosphoglycerate ([1]; metabolite 3-phosphoglycerate, S2 Table Metabolomics) was -0.2906. The ADP-D-glucose ([1]; metabolite ADP-D-glucose, S2 Table Metabolomics) was 0.1986, the ATP ([1]; metabolite ATP, S2 Table Metabolomics) was -0.1401 and the CDP ([1]; metabolite CDP, S2 Table Metabolomics, change in metabolite level after compound treatment) was -0.619. It also gave a D-sedoheptulose-1/7-phosphate ([1]; metabolite D-sedoheptulose-1/7-phosphate, S2 Table Metabolomics, change in metabolite level after compound treatment) of 0.1339, an FAD ([1]; metabolite FAD, S2 Table Metabolomics) of 0.2064 and a GMP ([1]; metabolite GMP, S2 Table Metabolomics, change in metabolite level after compound treatment) of -0.008752. For the same compound, the “NAD+” value ([1]; metabolite NAD+, S2 Table Metabolomics) was -0.02079, the “NADP+” value ([1]; metabolite NADP+, S2 Table Metabolomics) was 0.1784 and the “Octoluse Bisphosphate” value ([1]; metabolite Octoluse Bisphosphate, S2 Table Metabolomics, change in metabolite level after compound treatment) was -0.1148. The Pyroglutamic acid ([1]; metabolite Pyroglutamic acid, S2 Table Metabolomics) was -0.1051, the UDP-D-glucose ([1]; metabolite UDP-D-glucose, S2 Table Metabolomics) was -0.06605 and the UDP-D-glucuronate ([1]; metabolite UDP-D-glucuronate, S2 Table Metabolomics) was -0.1248. For the same compound, the UDP-N-acetyl-glucosamine ([1]; metabolite UDP-N-acetyl-glucosamine, S2 Table Metabolomics) was -0.297, the UDP ([1]; metabolite UDP, S2 Table Metabolomics, change in metabolite level after compound treatment) was -1.2 and the UMP ([1]; metabolite UMP, S2 Table Metabolomics, change in metabolite level after compound treatment) was -1.107. It also gave a UTP ([1]; metabolite UTP, S2 Table Metabolomics, change in metabolite level after compound treatment) of -1.42, an a-ketoglutarate ([1]; metabolite a-ketoglutarate, S2 Table Metabolomics) of -0.8941 and a citrate/isocitrate ([1]; metabolite citrate/isocitrate, S2 Table Metabolomics, change in metabolite level after compound treatment) of -0.2089. The cytidine ([1]; metabolite cytidine, S2 Table Metabolomics) was 0.004614, the dATP ([1]; metabolite dATP, S2 Table Metabolomics) was 0.08773 and the dGMP/AMP ([1]; metabolite dGMP/AMP, S2 Table Metabolomics, change in metabolite level after compound treatment) was -0.284. For the same compound, the fumarate ([1]; metabolite fumarate, S2 Table Metabolomics, change in metabolite level after compound treatment) was 0.6925, the glucose-1/6-phosphate ([1]; metabolite glucose-1/6-phosphate, S2 Table Metabolomics, change in metabolite level after compound treatment) was -0.2278 and the glycerate ([1]; metabolite glycerate, S2 Table Metabolomics, change in metabolite level after compound treatment) was -0.4348. The guanine ([1]; metabolite guanine, S2 Table Metabolomics, change in metabolite level after compound treatment) was 0.1895, the guanosine ([1]; metabolite guanosine, S2 Table Metabolomics, change in metabolite level after compound treatment) was 0.2428 and the hypoxanthine ([1]; metabolite hypoxanthine, S2 Table Metabolomics) was -0.1751. The indole ([1]; metabolite indole, S2 Table Metabolomics) was -0.1227, the inosine ([1]; metabolite inosine, S2 Table Metabolomics, change in metabolite level after compound treatment) was -0.4694 and the 2_3-Diphosphoglyceric acid [1, 2] was -0.2253. For the same compound, the 4-phosphopantothenate [1, 2] was -0.909, the 6-phospho-D-gluconate [1, 2] was -0.007867 and the FMN [1, 2] was -0.349. For the same compound, the IMP [1, 2] was -0.2804, the Pyrophosphate [1, 2] was -0.2048 and the Sedoheptoluse bisphosphate [1, 2] was 0.08493. The cyclic-AMP [1, 2] was -0.08461, the glutathione disulfide [1, 2] was -0.0242 and the lactate [1, 2] was -0.4874. For the same compound, the myo-inositol [1, 2] was -0.8159, the nicotinate ([1]; metabolite nicotinate, S2 Table Metabolomics) was -0.2742 and the ornithine ([1]; metabolite ornithine, S2 Table Metabolomics) was -0.03081. For the same compound, the phosphoenolpyruvate ([1]; metabolite phosphoenolpyruvate, S2 Table Metabolomics) was -0.3915, the pyruvate ([1]; metabolite pyruvate, S2 Table Metabolomics, change in metabolite level after compound treatment) was -0.2887 and the ribose-phosphate ([1]; metabolite ribose-phosphate, S2 Table Metabolomics) was -0.1311. The sarcosine/alanine ([1]; metabolite sarcosine/alanine, S2 Table Metabolomics, change in metabolite level after compound treatment) was 1.094, the sn-glycerol-3-phosphate ([1]; metabolite sn-glycerol-3-phosphate, S2 Table Metabolomics) was 0.2993 and the succinate/methylmalonic acid ([1]; metabolite succinate/methylmalonic acid, S2 Table Metabolomics, change in metabolite level after compound treatment) was 0.5601. The uridine ([1]; metabolite uridine, S2 Table Metabolomics, change in metabolite level after compound treatment) was 0.2091 and the xanthosine ([1]; metabolite xanthosine, S2 Table Metabolomics, change in metabolite level after compound treatment) was -0.0525.
